From patent publication US7781161B2, “Genomic screen for epigenetically silenced tumor suppressor genes” (The Johns Hopkins University School of Medicine, priority 2002, dated 2010)

Key:
Assay type in all cases: cell-based, human
KYSE30 = assay: Oligonucleotide microarray: genes up-regulated after 5Aza-dC ± TSA treatment; details: at least 3.0 fold increase
Protocol: (§1) Cells were split to low density (5×10^5 per T-25 flask) 12 to 24 hr before treatment, then treated for 3, 4, or 5 days with 1 μM or 5 μM 5Aza-dC (Sigma) from 100-mM 50% acetic acid dissolved stock or were mock-treated with the same volume of phosphate buffered saline (PBS) including the same acetic acid. Following an initial incubation (48 hr) of 5Aza-dC, a final concentration of 300 nM TSA (Sigma) was added to the media from a 5 mM ethanol dissolved stock, or cells were mock-treated with an identical volume of ethanol.
(§2) Oligonucleotide microarray analysis was performed using the GeneChip™ Human Genome U95Av2 Array (Affymetrix), which contains 12,599 genes, according to the manufacturer's instruction. […] RNA was isolated using TRIZOL reagent (Invitrogen Corp.) and reverse-transcribed total RNA (8 μg) with M-MLV (Invitrogen Corp.); one one-hundredth of the cDNA product was used as a template for PCR. RT-PCR was performed at 24 to 30 cycles: 95° C. for 1 min, 54 or 56° C. for 1 min, and 72° C. for 1 min.
(§3) Treatment of cells with the demethylating agent 5aza-dC (1 μM or 5 μM) for 3 to 5 days, and with or without the histone deacetylase inhibitor, TSA (300 nM; last 24 hours), was used to reactivate genes epigenetically silenced in 3 ESCC cell lines. […] The number of candidate genes was further diminished by comparing expression patterns (see world wide web, at URL “cgap.nci.nih.gov”) in normal esophagus and carcinoma tissue samples (eliminating those genes not expressed in normal tissue), and excluding unknown genes.

KYSE410 = assay: as above; details: at least 3.0 fold increase
Protocol: as §1, §2, §3

KYSE520 = assay: as above; details: at least 3.0 fold increase
Protocol: as §1, §2, §3

HNSCC #011 cell line = assay: Microarray screen for reactivated genes in HNSCC cells; details: 10 μM 5Aza-dC
Protocol: as §1, §2
HNSCC cells were incubated with 10 μM 5Aza-dC or with 0.1 μM 5Aza-dC and 300 nM TSA and screened as described in Example 1.

3 ESCC cell lines = assay: Microarray screen, pooled over the 3 ESCC cell lines
Protocol: as §1, §2
Treatment of cells with the demethylating agent 5aza-dC (1 μM or 5 μM) for 3 to 5 days, and with or without the histone deacetylase inhibitor, TSA (300 nM; last 24 hours), was used to reactivate genes epigenetically silenced in 3 ESCC cell lines. […]

In the case of `Nc1ncn([C@H]2C[C@H](O)[C@@H](CO)O2)c(=O)n1` [5Aza-dC, 5-aza-2′-deoxycytidine], the “Genes upregulated by microarray analysis after treatments” value (from here on “Genes upregulated”) (KYSE30; 1 μM 5Aza-dC) is reported as 46 genes, the “Genes upregulated” value (KYSE30; 5 μM 5Aza-dC) is reported as 242 genes and the “Genes upregulated” value (KYSE410; 1 μM 5Aza-dC) is reported as 15 genes. For the same compound, the “Genes upregulated” value (KYSE410; 5 μM 5Aza-dC) was 334 genes, the “Genes upregulated” value (KYSE520; 1 μM 5Aza-dC) was 5 genes and the “Genes upregulated” value (KYSE520; 5 μM 5Aza-dC) was 149 genes. The “Reactivation of epigenetically silenced genes” value (HNSCC #011 cell line; HNSCC cells) was “Reactivation of epigenetically silenced genes was observed”, the “Fold increase in expression: H.sapiens p27 mRNA (X67325)” value (HNSCC #011 cell line; probe 425_at, HNSCC #011) was 5.8 fold and the “Fold increase in expression: tumor necrosis factor alpha inducible protein” value (HNSCC #011 cell line; probe 595_at, HNSCC #011) was 3.648 fold. For the same compound, the “Fold increase in expression: von Hippel-Lindau disease tumor suppressor mRNA” value (HNSCC #011 cell line; probe 1668_s_a, HNSCC #011) was 2.4375 fold, the “Fold increase in expression: insulin-like growth factor binding protein 6 (IGFBP6) gene (M62402)” value (HNSCC #011 cell line; probe 1736_at, HNSCC #011) was 2.2 fold and the “Fold increase in expression: Human Rad mRNA (L24564)” value (HNSCC #011 cell line; probe 1776_at, HNSCC #011) was 10.9 fold. For the same compound, the “Fold increase in expression: mRNA for TGF-betaIIR alpha” value (HNSCC #011 cell line; probe 1814_at, HNSCC #011) was 3.3 fold, the “Fold increase in expression: Human Bc12, p53 binding protein (U58334)” value (HNSCC #011 cell line; probe 1860_at, HNSCC #011) was 2.3 fold and the “Fold increase in expression: Human R-ras gene (M14949)” value (HNSCC #011 cell line; probe 1879_at, HNSCC #011) was 3.7 fold. For the same compound, the “Fold increase in expression: Human excision repair protein (ERCC1) mRNA” value (HNSCC #011 cell line; probe 1902_at, HNSCC #011) was 5.562 fold, the “Fold increase in expression: Human wild-type p53 activated fragment-1 (WAF1) mRNA (U03106)” value (HNSCC #011 cell line; probe 2031_s_a, HNSCC #011) was 2.9 fold and the “Fold increase in expression: breast cancer putative transcription factor (ZABC1) gene (AF041259)” value (HNSCC #011 cell line; probe 32034_at, HNSCC #011) was 3.1 fold. For the same compound, the “Fold increase in expression: DR4 homolog; TRAIL receptor 2” value (HNSCC #011 cell line; probe 34892_at, HNSCC #011) was 2.4292 fold, the “Fold increase in expression: DOC-1 related protein” value (HNSCC #011 cell line; probe 35151_at, HNSCC #011) was 2.4474 fold and the “Fold increase in expression: Mothers against dpp (Mad) gene (DPC4 gene), U10328” value (HNSCC #011 cell line; probe 36953_at, HNSCC #011) was 3.5132 fold. The “Fold increase in expression: TGFb inducible early protein and early growth response protein alpha genes (AF050110)” value (HNSCC #011 cell line; probe 38374_at, HNSCC #011) was 2.3 fold, the “Fold increase in expression: insulin-like growth factor binding protein 4 (IGFBP4) gene (U20982)” value (HNSCC #011 cell line; probe 39781_at, HNSCC #011) was 3.7 fold and the “Share of all up-regulated genes included in the treatment group” value (3 ESCC cell lines; 5 μM 5Aza-dC treatment group, 3 ESCC cell lines) was > 80%. For the same compound, the “STAT3 expression after treatment” value (3 ESCC cell lines; after 5Aza-dC treatments) was “did not change”.
